≈ marks a conversion by molar mass, not a printed value.
Legend:
Oryctolagus cuniculus [1] = assay: (§1) Antiglaucoma activity in New Zealand albino rabbit model of carbomer-induced hypertensive eye glaucoma assessed as time duration showing reduction in intraocular pressure at 0.07% using compound complexed with cyclodextrin directly instilled into conjunctive pocket measured 24 hrs post drug administration; assay type: functional
[2] = Aqueous solubility in pH 7.4 PBS in presence of hydroxyethyl-beta cyclodextrin incubated for 48 hrs at 25 degC by spectrophotometry; assay type: physicochemical; details: PBS with hydroxyethyl-beta cyclodextrin
[3] = Aqueous solubility in pH 7.4 PBS in presence of gamma-cyclodextrin incubated for 48 hrs at 25 degC by spectrophotometry; assay type: physicochemical; details: PBS with gamma-cyclodextrin
[4] = Aqueous solubility in pH 7.4 PBS in presence of hydroxypropyl-beta cyclodextrin incubated for 48 hrs at 25 degC by spectrophotometry; assay type: physicochemical; details: PBS with hydroxypropyl-beta cyclodextrin
[5] = Aqueous solubility in pH 7.4 PBS incubated for 48 hrs at 25 degC by spectrophotometry; assay type: physicochemical
[6] = Aqueous solubility in pH 7.4 PBS in presence of hydroxypropyl-alpha cyclodextrin incubated for 48 hrs at 25 degC by spectrophotometry; assay type: physicochemical; details: PBS with hydroxypropyl-alpha cyclodextrin
Oryctolagus cuniculus [7] = assay: as §1, with “as” for “as time duration showing reduction in”, “1 hr” for “24 hrs”, “administration (reference value: 45 to 50 mmHg)” for “administration”; assay type: functional
[8] = Stability of the compound; assay type: physicochemical
Oryctolagus cuniculus [9] = assay: as §1, with “as” for “as time duration showing reduction in”, “administration (reference value: 45 to 50 mmHg)” for “administration”; assay type: functional
Oryctolagus cuniculus [10] = assay: Toxicity in New Zealand albino rabbit model of carbomer-induced hypertensive eye glaucoma assessed as induction of eye irritation at 0.07% using compound complexed with cyclodextrin directly instilled into conjunctive pocket measured 24 hrs post drug administration; assay type: organism-based; details: in vivo, topical_or_ocular
Oryctolagus cuniculus [11] = assay: Toxicity in New Zealand albino rabbit model of carbomer-induced hypertensive eye glaucoma assessed as induction of eye irritation at 2% directly instilled into conjunctive pocket measured 24 hrs post drug administration; assay type: organism-based; details: in vivo, topical_or_ocular
[12] = Aqueous solubility in pH 7.4 PBS in presence of sulfobutyl-ether-beta cyclodextrin incubated for 48 hrs at 25 degC by spectrophotometry; assay type: physicochemical; details: PBS with sulfobutyl-ether-beta cyclodextrin
[13] = Equilibrium solubility in pH 7.4 PBS in presence of hydroxypropyl-gamma cyclodextrin incubated for 48 hrs at 25 degC by spectrophotometry; assay type: physicochemical; details: PBS with hydroxypropyl-gamma cyclodextrin
[14] = Aqueous solubility in pH 7.4 PBS in presence of hydroxypropyl-gamma cyclodextrin incubated for 48 hrs at 25 degC by spectrophotometry; assay type: physicochemical; details: PBS with hydroxypropyl-gamma cyclodextrin
Oryctolagus cuniculus [15] = assay: Toxicity in New Zealand albino rabbit model of carbomer-induced hypertensive eye glaucoma assessed as induction of eye irritation at 0.37% using compound complexed with cyclodextrin directly instilled into conjunctive pocket measured 24 hrs post drug administration; assay type: organism-based; details: in vivo, topical_or_ocular
Oryctolagus cuniculus [16] = assay: as §1, with “as” for “as time duration showing reduction in”, “0.37%” for “0.07%”, “administration (reference value: 45 to 50 mmHg)” for “administration”; assay type: functional
Oryctolagus cuniculus [17] = assay: Antiglaucoma activity in New Zealand albino rabbit model of carbomer-induced hypertensive eye glaucoma assessed as intraocular pressure at 0.37% using compound complexed with cyclodextrin directly instilled into conjunctive pocket measured 1 hr post drug administration (reference value: 45 to 50 mmHg); assay type: functional
Oryctolagus cuniculus [18] = assay: as §1, with “0.37%” for “0.07%”; assay type: functional

SMILES	Time (Oryctolagus cuniculus [1])	solubility at 48 h [2]	solubility at 48 h [3]	solubility at 48 h [4]	solubility at 48 h [5]	solubility at 48 h [6]	Activity (Oryctolagus cuniculus [7])	K [8]	Activity (Oryctolagus cuniculus [9])	Activity (Oryctolagus cuniculus [10])	Activity (Oryctolagus cuniculus [11])	solubility at 48 h [12]	solubility thermodynamic at 48 h [13]	solubility at 48 h [14]	Activity (Oryctolagus cuniculus [15])	Activity (Oryctolagus cuniculus [16])	Activity (Oryctolagus cuniculus [17])	Time (Oryctolagus cuniculus [18])
Cc1ccc(S(=O)(=O)NC(=O)NCCc2ccc(S(N)(=O)=O)cc2)cc1	20 h	203 µg/mL	232 µg/mL	212 µg/mL	87 µg/mL (≈ 219 µM)	141 µg/mL	36 mmHg	143.75 M⁻¹	35 mmHg	Toxic	Toxic	174 µg/mL	700 µg/mL	278 µg/mL				
NS(=O)(=O)c1ccc(CCNC(=O)NS(=O)(=O)c2ccc(F)cc2)cc1		2240 µg/mL	2260 µg/mL	2170 µg/mL	972 µg/mL (≈ 2420 µM)	1580 µg/mL		76.3 M⁻¹			Toxic	1810 µg/mL	3700 µg/mL	2330 µg/mL	Toxic	35 mmHg	36 mmHg	20 h

Source: ChEMBL document CHEMBL3612013, “Cyclodextrin complexation highly enhances efficacy of arylsulfonylureido benzenesulfonamide carbonic anhydrase inhibitors as a topical antiglaucoma agents” (Bioorg Med Chem, 2015)
